The target of series [1] is T1, CRALBP (Homo sapiens, UniProt P12271).
T1 construct: made in house
The series can be described thus: Size exclusion chromatography study of binding to CRALBP. The following applies: 4 μM apo-CRALBP, 8 μM ligand. The protocol: Apo-CRALBP at 4 μM was incubated with 8 μM of 11cRAL, atRAL or HPR in PBS at room temperature for 1 hour. In control experiment, equivalent volume of DMSO was added to the CRALBP solution. 50 μl of each sample mixture was analyzed by BioRad Bio-Sil SEC125 Gel Filtration Column (300×7.8 mm).

Series [2] has as its target RBP (Homo sapiens, UniProt P02753). The series can be described thus: Fluorescence quenching study of MPR binding to RBP. The method, then: Apo-RBP at 0.5 μM was incubated with 0, 0.25, 0.5, 1 and 2 μM of MPR in PBS at room temperature for 1 hour, respectively. As controls, the same concentration of Apo-RBP was also incubated with 1 μM of HPR or 1 μM of atROL. All mixtures contained 0.2% Ethanol (v/v). The emission spectra were measured between 290 nm to 550 nm with excitation wavelength at 280 nm and 3 nm bandpass.

For series [3], the target named is TTR binding to RBP (Homo sapiens, UniProt P02753). The series is described as follows: Size exclusion study of TTR binding to RBP. Particulars: 10 μM RBP, 50 μM MPR, 10 μM TTR. The protocol:
Apo-RBP at 10 μM was incubated with 50 μM of MPR in PBS at room temperature for 1 hour. 10 μM of TTR was then added to the solution, and the mixture was incubated for another hour at room temperature. […] of the sample mixtures with and without TTR addition were analyzed by BioRad Bio-Sil SEC 125 Gel Filtration Column (300×7.8 mm). In control experiments, atROL-RBP and atROL-RBP-TTR mixture were analyzed in the same manner.

The test system of series [4] is ABCA4−/− mice. The series is described as follows: HPR drug holiday after 28 days of treatment. The format is in vivo, mouse. The following applies: 28-day drug holiday. The method, then: HPR (10 mg/kg in DMSO) was administered to ABCA4−/− mice daily for a period of 28 days. Control ABCA4−/− mice received only DMSO for the same period. […] Importantly, the observed reductions in lipofuscin autofluorescence persist long after cessation of HPR therapy. HPR (10 mg/kg), or DMSO, administration was discontinued following 28 days of treatment and re-evaluated A2E and precursor levels after 2 weeks and after 4 weeks.
We examined eyecup extracts by HPLC and employed detection by absorbance and fluorimetry. Identity of the indicated peaks was confirmed by on-line spectral analysis and by co-elution with authentic standards. […] Further, the A2E and precursor (A2PE-H2 and A2PE) levels after a […] or 28-day drug holiday remained at or near the levels immediately following 28 days of treatment (i.e., ca. 50% reduction relative to control), although after the 28-day drug holiday, the amount of A2E and precursor (A2PE-H2 and A2PE) had increased by a few percentage points relative to the 12-day drug holiday levels. […] It is clear that peak fluorescence tracks with the abundance of A2E, A2PE and A2PE-H2.
This effect cannot be attributed to long-term reductions in serum retinol as serum retinol had returned to baseline 48 hours following the last HPR dose. […] Furthermore, HPR reduces serum retinol levels, which leads to a reduction in the level of retinol in the eyes of treated animals. Once the level of retinol has been reduced in the eye, there is a time lag in the subsequent increase in retinol levels in the eye. Alone or in combination, the production of A2E, A2PE and A2PE-H2 in the eye remains low despite the absence of HPR in the serum or the eye.

Series [5] has as its target T1, CRALBP. The series is described as follows: Fluorescence quenching study of binding to CRALBP. The method, then: Apo-CRALBP at 0.5 μM was incubated with 1 μM of 11-cis Retinal (11cRAL), all-trans retinal (atRAL) or N-4-hydroxyphenyl retinamide (HPR) in PBS at room temperature for 1 hour. As a control, same volume of DMSO was added to the Apo-CRABLP solution. The emission spectra were measured between 290 nm to 500 nm with excitation wavelength at 280 nm and 2 nm bandpass (See FIG. 7).
Quenching of CRALBP protein fluorescence with 11-cis retinal (11cRAL). The fluorescence emission of recombinant apo-CRALBP (0.5 μM) was measured using 280 nm excitation (“no 11cRAL”).
Quenching of CRALBP protein fluorescence with HPR. The data shown were obtained using an experimental design identical to that described above. The fluorescence emission of recombinant apo-CRALBP was measured using 280 nm excitation (“no HPR”).
We performed an analysis of the dissociation constant (KD) for 11cRAL and HPR binding to apo-CRALBP (see FIG. 15). […] This calculation is based upon the ligand concentration necessary to fully quench the protein fluorescence. The data reveal that both 11cRAL and HPR quench apo-CRALBP fluorescence maximally at ˜1.5 μM. Thus, although apo-CRALBP is described as an 11 cis-specific retinoid binding protein, it appears to bind HPR as well.

Series [6] has as its target T2, apo-CRALBP (Homo sapiens, UniProt P12271).
T2 construct: made in house
The series can be described thus: Ni+ affinity column and spectroscopic analysis of binding to CRALBP. Particulars: 10 μM apo-CRALBP, 20 μM ligand. The method, then: In order to confirm data obtained during fluorescence analysis of HPR binding to CRALBP, a second analysis was performed using affinity chromatography and spectroscopic analysis. The recombinant apo-CRALBP was constructed with a histidine tag which is utilized to purify the protein on a Ni+ affinity column following expression cloning. Here, we utilized this feature of apo-CRALBP to specifically “trap” the protein and any protein-ligand species for spectroscopic analysis. Two binding mixtures were prepared containing apo-CRALBP (10 μM) and either 11cRAL (20 μM) or HPR (20 μM). In control experiments for the analysis of non-specific ligand binding onto the affinity matrix, we prepared two additional mixtures containing only 11cRAL (20 μM) or HPR (20 μM) in binding buffer. The binding mixtures were passed through separate Ni+ affinity columns and the columns were washed extensively to elute unbound protein and ligand. Following the addition of elution buffer, the eluted fractions were analyzed by spectroscopy. […] Instead, two absorption maxima are seen: one at 280 nm and a second at 360 nm, which is attributable to the absorption of HPR (see FIG. 14).

T1 sequence (P12271 whole entry, species assumed): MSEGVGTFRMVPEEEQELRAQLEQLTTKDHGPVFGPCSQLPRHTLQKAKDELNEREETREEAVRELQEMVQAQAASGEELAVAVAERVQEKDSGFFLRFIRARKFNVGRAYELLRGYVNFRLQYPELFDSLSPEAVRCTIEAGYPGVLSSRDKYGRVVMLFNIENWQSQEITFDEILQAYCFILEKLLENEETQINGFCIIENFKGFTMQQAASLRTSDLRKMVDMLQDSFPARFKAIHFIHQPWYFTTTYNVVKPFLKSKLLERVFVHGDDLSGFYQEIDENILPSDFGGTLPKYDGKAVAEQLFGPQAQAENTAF
T2 sequence (P12271 whole entry, species assumed): as above

On to `CC1=C(/C=C/C(C)=C/C=C/C(C)=C/C=O)C(C)(C)CCC1` [atRAL, all-trans retinal], for which the “ligand bound to CRALBP (monomer elution peak absorbance)” value in series [1] is on record as “Less than half of the atRAL is bound to CRALBP”.
For `COc1ccc(NC(=O)\C=C(C)/C=C/C=C(C)\C=C\C2=C(C)CCCC2(C)C)cc1` (stereo in doubt) [MPR, N-(4-methoxyphenyl)retinamide], the “quenching of RBP fluorescence” value in series [2] (0.5 μM apo-RBP, 0-2 μM MPR) is listed as “concentration-dependent quenching”. For the same compound, the “concentration at which quenching of RBP fluorescence saturated” value in series [2] (0.5 μM of RBP) is 1 µM. Also, in series [2] (1 μM controls), the “degree of RBP fluorescence quenching compared with other ligands” value is “smaller than those by atROL and HPR”. Further, the “binding of ligand-RBP to TTR” value in series [3] is reported as “did not bind to TTR”. In series [4], the “detection in the eyes after drug holiday” value is on record as “unable to detect”.
Take `CC1=C(/C=C/C(C)=C/C=C/C(C)=C/C=O)C(C)(C)CCC1` [11cRAL, 11-cis retinal]: the “concentration of maximal quenching of apo-CRALBP fluorescence” value in series [5] is ~1.5 µM. Also, the “quenching of CRALBP fluorescence emission” value in series [5] (0.5 μM apo-CRALBP, 1 μM ligand, 1 hour, vs DMSO) was “highest degree of quenching”. Further, the “concentration dependence of CRALBP protein fluorescence quenching” value in series [5] (0.5 μM recombinant apo-CRALBP, 280 nm excitation) is “concentration dependent manner”. The Kd in series [5] (transformation of fluorescence quenching data, read-out: dissociation constant (KD) for binding to apo-CRALBP) was ~30 nM. Further, the “ligand bound to CRALBP (monomer elution peak absorbance)” value in series [1] is recorded as “a majority of the CRALBP is bound with ligand”. The “binding to apo-CRALBP by absorption spectra of eluted fraction” value in series [6] was “bound to CRALBP”.
With `CC1=C(/C=C/C(C)=C/C=C/C(C)=C/CO)C(C)(C)CCC1` [atROL, all-trans retinol], the “binding of ligand-RBP to TTR” value in series [3] is “binds to TTR”.

Values taken from patent publication US8410168B2, “Methods and compositions for treating ophthalmic conditions with retinyl derivatives” (Acucela, Inc., priority 2004, dated 2013).
